Test results: paper PMC3204379 (Journal of molecular biology, 2011)

Target: PtpA (Staphylococcus aureus, UniProt P0C5D2)
Test: phosphatase activity
Format: biochemical
Conditions: artificial substrate; conditions not given

Sequence of PtpA (P0C5D2 whole entry): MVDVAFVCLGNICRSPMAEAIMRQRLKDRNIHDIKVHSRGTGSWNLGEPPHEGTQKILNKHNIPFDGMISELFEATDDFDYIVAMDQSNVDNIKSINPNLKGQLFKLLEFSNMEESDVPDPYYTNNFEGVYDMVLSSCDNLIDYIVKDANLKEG

Structure (SMILES): O=[N+]([O-])c1ccc(OP(=O)(O)O)cc1 [para-nitrophenol phosphate]
- phosphatase activity (data not shown): activity of PtpA with the artificial phosphatase substrate para-nitrophenol phosphate
